Test results: patent US10227344B2, “CK2 inhibitors, compositions and methods thereof” (Polaris Pharmaceuticals, Inc., priority 2016, dated 2019)

Columns and labels:
Assay type in all cases: cell-based
[1] = tested on: Caki-1; experiment: Cancer cell panel, cell viability (resazurin): Renal, Caki-1; details: Caki-1 (Renal), 72 hours; labelled drug combined with Example 3
[2] = tested on: ACHN; experiment: Cancer cell panel, cell viability (resazurin): Renal, ACHN; details: 72 hours, labelled drug combined with Example 3
Description: (§1) Cells were plated in 96-well plates and treated for 72 hours with a serially diluted CK2 inhibitor or anti-cancer drug or their combination. The suspension cell lines were treated right after plating, while the adherent cells were allowed to attach overnight prior to the start of the treatment.
(§2) Cell viability was determined by adding resazurin to cell cultures and measuring fluorescence with a plate reader. Relative cell viability was calculated by dividing the cell viability signal from a test sample by that of a non-treated control. […] Bliss Independence and Highest Single Agent models were used to determine if there is synergy, additivity or antagonism between the CK2 inhibitor and an anti-cancer drug.

[3] = tested on: DLD-1; experiment: Cancer cell panel, cell viability (resazurin): Colon, DLD-1; details: DLD-1 (Colon), 72 hours; labelled drug combined with Example 3
[4] = tested on: Mia-Paca-2; experiment: Cancer cell panel, cell viability (resazurin): Pancreatic, Mia-Paca-2; details: Mia-Paca-2 (Pancreatic), 72 hours; labelled drug combined with Example 3
[5] = tested on: BT-474; experiment: Cancer cell panel, cell viability (resazurin): Breast, BT-474; details: BT-474 (Breast), 72 hours; labelled drug combined with Example 3
Description: as §1, §2

[6] = tested on: MDA-MB-453; experiment: Cancer cell panel, cell viability (resazurin): Breast, MDA-MB-453; details: MDA-MB-453 (Breast), 72 hours; labelled drug combined with Example 3
[7] = tested on: HT29; experiment: Cancer cell panel, cell viability (resazurin): Colon, HT29; details: 72 hours, labelled drug combined with Example 3
[8] = tested on: H23; experiment: Cancer cell panel, cell viability (resazurin): NSCLC, H23; details: 72 hours, labelled drug combined with Example 3
[9] = tested on: LoVo; experiment: Cancer cell panel, cell viability (resazurin): Colon, LoVo; details: 72 hours, labelled drug combined with Example 3
[10] = tested on: SkBr-3; experiment: Cancer cell panel, cell viability (resazurin): Breast, SkBr-3; details: SkBr-3 (Breast), 72 hours; labelled drug combined with Example 3
[11] = tested on: H1299; experiment: Cancer cell panel, cell viability (resazurin): NSCLC, H1299; details: 72 hours, labelled drug combined with Example 3
[12] = tested on: A549; experiment: Cancer cell panel, cell viability (resazurin): NSCLC, A549; details: 72 hours, labelled drug combined with Example 3
[13] = tested on: Caki-2; experiment: Cancer cell panel, cell viability (resazurin): Renal, Caki-2; details: Caki-2 (Renal), 72 hours; labelled drug combined with Example 3
Description: as §1, §2

[14] = tested on: HCT116; experiment: Cancer cell panel, cell viability (resazurin): Colon, HCT116; details: 72 hours, labelled drug combined with Example 3
[15] = tested on: Ramos; experiment: Cancer cell panel, cell viability (resazurin): Burkitt's Lymphoma, Ramos; details: 72 hours, labelled drug combined with Example 3
Description: as §1, §2

[16] = tested on: HL60; experiment: Cancer cell panel, cell viability (resazurin): Leukemia, HL60; details: 72 hours, labelled drug combined with Example 3
[17] = tested on: Panc-1; experiment: Cancer cell panel, cell viability (resazurin): Pancreatic, Panc-1; details: Panc-1 (Pancreatic), 72 hours; labelled drug combined with Example 3
[18] = tested on: SK-MEL-24; experiment: Cancer cell panel, cell viability (resazurin): Melanoma, SK-MEL-24; details: SK-MEL-24 (Melanoma), 72 hours; labelled drug combined with Example 3
[19] = tested on: MDA-MB-157; experiment: Cancer cell panel, cell viability (resazurin): Breast, MDA-MB-157; details: MDA-MB-157 (Breast), 72 hours; labelled drug combined with Example 3
[20] = tested on: Caov-3; experiment: Cancer cell panel, cell viability (resazurin): Ovarian, Caov-3; details: Caov-3 (Ovarian), 72 hours; labelled drug combined with Example 3
Description: as §1, §2

[21] = tested on: MDA-MB-231; experiment: Cancer cell panel, cell viability (resazurin): Breast, MDA-MB-231; details: MDA-MB-231 (Breast), 72 hours; labelled drug combined with Example 3
Description: as §1, §2

[22] = tested on: WM-115; experiment: Cancer cell panel, cell viability (resazurin): Melanoma, WM-115; details: WM-115 (Melanoma), 72 hours; labelled drug combined with Example 3
Description: as §1, §2

[23] = tested on: H460; experiment: Cancer cell panel, cell viability (resazurin): NSCLC, H460; details: 72 hours, labelled drug combined with Example 3
Description: as §1, §2

[24] = tested on: H1975; experiment: Cancer cell panel, cell viability (resazurin): NSCLC, H1975; details: 72 hours, labelled drug combined with Example 3
Description: as §1, §2

[25] = tested on: MCF7; experiment: Cancer cell panel, cell viability (resazurin): Breast, MCF7; details: 72 hours, labelled drug combined with Example 3
[26] = tested on: EOL-1; experiment: Cancer cell panel, cell viability (resazurin): Leukemia, EOL-1; details: EOL-1 (Leukemia), 72 hours; labelled drug combined with Example 3
[27] = tested on: U266; experiment: Cancer cell panel, cell viability (resazurin): multiple myeloma, U266; details: 72 hours, labelled drug combined with Example 3
[28] = tested on: BxPC3; experiment: Cancer cell panel, cell viability (resazurin): Pancreatic, BxPC3; details: 72 hours, labelled drug combined with Example 3
[29] = tested on: Raji; experiment: Cancer cell panel, cell viability (resazurin): Burkitt's Lymphoma, Raji; details: 72 hours, labelled drug combined with Example 3
Description: as §1, §2

[30] = tested on: T47D; experiment: Cancer cell panel, cell viability (resazurin): Breast, T47D; details: 72 hours, labelled drug combined with Example 3
Description: as §1, §2

[31] = tested on: OVCAR-3; experiment: Cancer cell panel, cell viability (resazurin): Ovarian, OVCAR-3; details: OVCAR-3 (Ovarian), 72 hours; labelled drug combined with Example 3
[32] = tested on: BT-20; experiment: Cancer cell panel, cell viability (resazurin): Breast, BT-20; details: BT-20 (Breast), 72 hours; labelled drug combined with Example 3
[33] = tested on: A375; experiment: Cancer cell panel, cell viability (resazurin): Melanoma, A375; details: 72 hours, labelled drug combined with Example 3
[34] = tested on: Daudi; experiment: Cancer cell panel, cell viability (resazurin): Burkitt's Lymphoma, Daudi; details: 72 hours, labelled drug combined with Example 3
[35] = tested on: RPMI8226; experiment: Cancer cell panel, cell viability (resazurin): multiple myeloma, RPMI8226; details: 72 hours, labelled drug combined with Example 3
[36] = tested on: K562; experiment: Cancer cell panel, cell viability (resazurin): Leukemia, K562; details: 72 hours, labelled drug combined with Example 3
[37] = tested on: SKOV-3; experiment: Cancer cell panel, cell viability (resazurin): Ovarian, SKOV-3; details: SKOV-3 (Ovarian), 72 hours; labelled drug combined with Example 3
[38] = tested on: PC3; experiment: Cancer cell panel, cell viability (resazurin): Prostate, PC3; details: 72 hours, labelled drug combined with Example 3
[39] = tested on: Colo205; experiment: Cancer cell panel, cell viability (resazurin): Colon, Colo205; details: 72 hours, labelled drug combined with Example 3
Description: as §1, §2

[40] = tested on: A2780; experiment: Cancer cell panel, cell viability (resazurin): Ovarian, A2780; details: 72 hours, labelled drug combined with Example 3
[41] = tested on: H2122; experiment: Cancer cell panel, cell viability (resazurin): NSCLC, H2122; details: 72 hours, labelled drug combined with Example 3

CC(C)C[C@H](NC(=O)[C@H](Cc1ccccc1)NC(=O)c1cnccn1)B(O)O [Bortezomib, bortezomib]
synergy, additivity or antagonism of the combination of Example 3 with the anti-cancer drug [1]: + (Additive relative to each agent alone (CI = 0.9-1 by Bliss Independence Model and <0.9 by Highest Single Agent Model)) | synergy, additivity or antagonism of the combination of Example 3 with the anti-cancer drug [2]: + + (Slight synergy relative to each agent alone (CI = 0.75-0.9 by Bliss Independence Model)) | synergy, additivity or antagonism of the combination of Example 3 with the anti-cancer drug [3]: + + + (Synergy relative to each agent alone (CI = 0.4-0.74 by Bliss Independence Model)) | synergy, additivity or antagonism of the combination of Example 3 with the anti-cancer drug [4]: + + (Slight synergy relative to each agent alone (CI = 0.75-0.9 by Bliss Independence Model)) | synergy, additivity or antagonism of the combination of Example 3 with the anti-cancer drug [5]: + + (Slight synergy relative to each agent alone (CI = 0.75-0.9 by Bliss Independence Model)) | synergy, additivity or antagonism of the combination of Example 3 with the anti-cancer drug [6]: + (Additive relative to each agent alone (CI = 0.9-1 by Bliss Independence Model and <0.9 by Highest Single Agent Model)) | synergy, additivity or antagonism of the combination of Example 3 with the anti-cancer drug [7]: + (Additive relative to each agent alone (CI = 0.9-1 by Bliss Independence Model and <0.9 by Highest Single Agent Model)) | synergy, additivity or antagonism of the combination of Example 3 with the anti-cancer drug [8]: + (Additive relative to each agent alone (CI = 0.9-1 by Bliss Independence Model and <0.9 by Highest Single Agent Model)) | synergy, additivity or antagonism of the combination of Example 3 with the anti-cancer drug [9]: + (Additive relative to each agent alone (CI = 0.9-1 by Bliss Independence Model and <0.9 by Highest Single Agent Model)) | synergy, additivity or antagonism of the combination of Example 3 with the anti-cancer drug [10]: + (Additive relative to each agent alone (CI = 0.9-1 by Bliss Independence Model and <0.9 by Highest Single Agent Model)) | synergy, additivity or antagonism of the combination of Example 3 with the anti-cancer drug [11]: + (Additive relative to each agent alone (CI = 0.9-1 by Bliss Independence Model and <0.9 by Highest Single Agent Model)) | synergy, additivity or antagonism of the combination of Example 3 with the anti-cancer drug [12]: + + + (Synergy relative to each agent alone (CI = 0.4-0.74 by Bliss Independence Model)) | synergy, additivity or antagonism of the combination of Example 3 with the anti-cancer drug [13]: + (Additive relative to each agent alone (CI = 0.9-1 by Bliss Independence Model and <0.9 by Highest Single Agent Model)) | synergy, additivity or antagonism of the combination of Example 3 with the anti-cancer drug [14]: + + (Slight synergy relative to each agent alone (CI = 0.75-0.9 by Bliss Independence Model)) | synergy, additivity or antagonism of the combination of Example 3 with the anti-cancer drug [15]: + (Additive relative to each agent alone (CI = 0.9-1 by Bliss Independence Model and <0.9 by Highest Single Agent Model)) | synergy, additivity or antagonism of the combination of Example 3 with the anti-cancer drug [16]: + (Additive relative to each agent alone (CI = 0.9-1 by Bliss Independence Model and <0.9 by Highest Single Agent Model)) | synergy, additivity or antagonism of the combination of Example 3 with the anti-cancer drug [17]: + (Additive relative to each agent alone (CI = 0.9-1 by Bliss Independence Model and <0.9 by Highest Single Agent Model)) | synergy, additivity or antagonism of the combination of Example 3 with the anti-cancer drug [18]: + + + (Synergy relative to each agent alone (CI = 0.4-0.74 by Bliss Independence Model)) | synergy, additivity or antagonism of the combination of Example 3 with the anti-cancer drug [19]: + + + (Synergy relative to each agent alone (CI = 0.4-0.74 by Bliss Independence Model)) | synergy, additivity or antagonism of the combination of Example 3 with the anti-cancer drug [20]: + (Additive relative to each agent alone (CI = 0.9-1 by Bliss Independence Model and <0.9 by Highest Single Agent Model)) | synergy, additivity or antagonism of the combination of Example 3 with the anti-cancer drug [21]: + (Additive relative to each agent alone (CI = 0.9-1 by Bliss Independence Model and <0.9 by Highest Single Agent Model)) | synergy, additivity or antagonism of the combination of Example 3 with the anti-cancer drug [22]: + + (Slight synergy relative to each agent alone (CI = 0.75-0.9 by Bliss Independence Model)) | synergy, additivity or antagonism of the combination of Example 3 with the anti-cancer drug [23]: + + (Slight synergy relative to each agent alone (CI = 0.75-0.9 by Bliss Independence Model)) | synergy, additivity or antagonism of the combination of Example 3 with the anti-cancer drug [24]: + (Additive relative to each agent alone (CI = 0.9-1 by Bliss Independence Model and <0.9 by Highest Single Agent Model)) | synergy, additivity or antagonism of the combination of Example 3 with the anti-cancer drug [25]: − − (Antagonistic relative to each agent alone (CI = 1.2-1.49 by Highest Single Agent Model)) | synergy, additivity or antagonism of the combination of Example 3 with the anti-cancer drug [26]: + + (Slight synergy relative to each agent alone (CI = 0.75-0.9 by Bliss Independence Model)) | synergy, additivity or antagonism of the combination of Example 3 with the anti-cancer drug [27]: + (Additive relative to each agent alone (CI = 0.9-1 by Bliss Independence Model and <0.9 by Highest Single Agent Model)) | synergy, additivity or antagonism of the combination of Example 3 with the anti-cancer drug [28]: + + + (Synergy relative to each agent alone (CI = 0.4-0.74 by Bliss Independence Model)) | synergy, additivity or antagonism of the combination of Example 3 with the anti-cancer drug [29]: + + (Slight synergy relative to each agent alone (CI = 0.75-0.9 by Bliss Independence Model)) | synergy, additivity or antagonism of the combination of Example 3 with the anti-cancer drug [30]: + (Additive relative to each agent alone (CI = 0.9-1 by Bliss Independence Model and <0.9 by Highest Single Agent Model)) | synergy, additivity or antagonism of the combination of Example 3 with the anti-cancer drug [31]: + (Additive relative to each agent alone (CI = 0.9-1 by Bliss Independence Model and <0.9 by Highest Single Agent Model)) | synergy, additivity or antagonism of the combination of Example 3 with the anti-cancer drug [32]: + + (Slight synergy relative to each agent alone (CI = 0.75-0.9 by Bliss Independence Model)) | synergy, additivity or antagonism of the combination of Example 3 with the anti-cancer drug [33]: + (Additive relative to each agent alone (CI = 0.9-1 by Bliss Independence Model and <0.9 by Highest Single Agent Model)) | synergy, additivity or antagonism of the combination of Example 3 with the anti-cancer drug [34]: + (Additive relative to each agent alone (CI = 0.9-1 by Bliss Independence Model and <0.9 by Highest Single Agent Model)) | synergy, additivity or antagonism of the combination of Example 3 with the anti-cancer drug [35]: + (Additive relative to each agent alone (CI = 0.9-1 by Bliss Independence Model and <0.9 by Highest Single Agent Model)) | synergy, additivity or antagonism of the combination of Example 3 with the anti-cancer drug [36]: + (Additive relative to each agent alone (CI = 0.9-1 by Bliss Independence Model and <0.9 by Highest Single Agent Model)) | synergy, additivity or antagonism of the combination of Example 3 with the anti-cancer drug [37]: + + + (Synergy relative to each agent alone (CI = 0.4-0.74 by Bliss Independence Model)) | synergy, additivity or antagonism of the combination of Example 3 with the anti-cancer drug [38]: + (Additive relative to each agent alone (CI = 0.9-1 by Bliss Independence Model and <0.9 by Highest Single Agent Model)) | synergy, additivity or antagonism of the combination of Example 3 with the anti-cancer drug [39]: − (Slightly antagonistic relative to each agent alone (CI = 1.1-1.2 by Highest Single Agent Model)) | synergy, additivity or antagonism of the combination of Example 3 with the anti-cancer drug [40]: + + (Slight synergy relative to each agent alone (CI = 0.75-0.9 by Bliss Independence Model)) | synergy, additivity or antagonism of the combination of Example 3 with the anti-cancer drug [41]: + (Additive relative to each agent alone (CI = 0.9-1 by Bliss Independence Model and <0.9 by Highest Single Agent Model))
